Active and inactive are the calls of the source.
Legend:
Trypsin = Trypsin (Sus scrofa, UniProt P00761); test: porcine trypsin inhibitors, dose response, selectivity assay for Rce1 protease inhibitor project, biochemical, quenched peptide fluorescence, cherry-pick (AID 488789)
Large T antigen = Large T antigen (Simian virus 40, UniProt P03070); assay type: functional, Betapolyomavirus macacae;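 note: Confirmatory-stage PubChem screen for compounds that inhibit SV40 T antigen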
CAAX prenyl protease 2 = CAAX prenyl protease 2 (Saccharomyces cerevisiae S288c, UniProt Q03530); assay type: biochemical
Sequence of CAAX prenyl protease 2 (Q03530 whole entry, the tested form may be a part): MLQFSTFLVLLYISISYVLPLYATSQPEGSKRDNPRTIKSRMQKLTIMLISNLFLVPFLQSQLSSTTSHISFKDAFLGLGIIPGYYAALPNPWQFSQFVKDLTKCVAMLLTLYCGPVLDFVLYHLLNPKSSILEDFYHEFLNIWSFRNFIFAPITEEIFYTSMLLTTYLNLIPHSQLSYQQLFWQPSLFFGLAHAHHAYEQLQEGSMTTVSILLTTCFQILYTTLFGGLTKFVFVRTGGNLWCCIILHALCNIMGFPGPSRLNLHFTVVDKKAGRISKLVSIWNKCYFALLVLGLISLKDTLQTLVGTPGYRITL

[1] = biological target: T1, Runt-related transcription factor 1/Core-binding factor subunit beta (Homo sapiens, UniProt Q01196+Q13951); test: inhibitors of RUNX1 Runt–CBFb-SMMHC binding, primary screen, biochemical, FRET, Cerulean-Runt, Venus-CBFb-SMMHC, uHTS (AID 1434); assay type: protein assay;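 note: partner is the CBFb-SMMHC leukemia fusion protein rather than wild-type CBFb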
T1 sequence (Q01196 whole entry, the tested form may be a part): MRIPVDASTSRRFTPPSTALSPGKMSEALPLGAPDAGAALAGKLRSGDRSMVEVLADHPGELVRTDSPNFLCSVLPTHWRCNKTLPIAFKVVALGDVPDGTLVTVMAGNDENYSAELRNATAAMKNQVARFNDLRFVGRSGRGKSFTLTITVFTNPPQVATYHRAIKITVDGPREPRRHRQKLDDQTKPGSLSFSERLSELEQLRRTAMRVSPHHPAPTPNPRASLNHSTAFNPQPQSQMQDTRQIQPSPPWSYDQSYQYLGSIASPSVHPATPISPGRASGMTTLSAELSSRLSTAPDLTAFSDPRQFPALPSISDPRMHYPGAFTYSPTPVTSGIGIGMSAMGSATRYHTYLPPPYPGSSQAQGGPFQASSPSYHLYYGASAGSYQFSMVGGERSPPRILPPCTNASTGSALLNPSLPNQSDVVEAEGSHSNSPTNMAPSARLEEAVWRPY
T1 sequence (Q13951 whole entry, the tested form may be a part): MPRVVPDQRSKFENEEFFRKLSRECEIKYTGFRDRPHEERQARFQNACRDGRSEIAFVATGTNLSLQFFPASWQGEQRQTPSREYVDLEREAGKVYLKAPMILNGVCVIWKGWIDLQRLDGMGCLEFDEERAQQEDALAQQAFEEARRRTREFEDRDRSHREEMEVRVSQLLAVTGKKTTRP

[2] = HEp-2 cell cytotoxicity, dose response, cytotoxicity control for RSV inhibitor project, HTS (AID 2410); assay type: functional; conditions: human respiratory syncytial virus
[3] = biological target: T1, Runt-related transcription factor 1/Core-binding factor subunit beta; test: inhibitors of RUNX1 Runt–CBFb-SMMHC binding, biochemical, TR-FRET (AID 1438); assay type: protein assay
[4] = biological target: Glucose-6-phosphate 1-dehydrogenase (Homo sapiens, UniProt P11413); test: human G6PD enzyme inhibitors, dose response, selectivity assay for P. falciparum G6PD inhibitor project, biochemical, fluorescence (AID 504792); assay type: functional
Sequence of Glucose-6-phosphate 1-dehydrogenase (P11413 whole entry): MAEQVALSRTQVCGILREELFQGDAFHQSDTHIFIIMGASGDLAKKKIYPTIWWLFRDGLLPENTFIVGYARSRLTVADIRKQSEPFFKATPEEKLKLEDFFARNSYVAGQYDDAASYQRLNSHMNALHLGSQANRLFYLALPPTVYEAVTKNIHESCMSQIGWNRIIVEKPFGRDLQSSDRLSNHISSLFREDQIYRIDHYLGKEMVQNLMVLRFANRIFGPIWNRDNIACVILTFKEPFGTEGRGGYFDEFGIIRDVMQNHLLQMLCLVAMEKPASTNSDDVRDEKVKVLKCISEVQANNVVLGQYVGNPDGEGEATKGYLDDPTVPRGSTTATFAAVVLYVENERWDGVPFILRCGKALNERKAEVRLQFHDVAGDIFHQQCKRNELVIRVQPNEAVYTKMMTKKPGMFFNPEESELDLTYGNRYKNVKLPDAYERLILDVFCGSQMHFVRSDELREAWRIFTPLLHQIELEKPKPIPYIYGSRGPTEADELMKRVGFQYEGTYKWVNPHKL

[5] = biological target: T2, Mitochondrial peptide methionine sulfoxide reductase (Bos taurus, UniProt P54149); test: Absorbance-based biochemical high throughput dose response assay for activators of Methionine sulfoxide reductase A (MsrA).; assay type: functional
T2 sequence (P54149 whole entry): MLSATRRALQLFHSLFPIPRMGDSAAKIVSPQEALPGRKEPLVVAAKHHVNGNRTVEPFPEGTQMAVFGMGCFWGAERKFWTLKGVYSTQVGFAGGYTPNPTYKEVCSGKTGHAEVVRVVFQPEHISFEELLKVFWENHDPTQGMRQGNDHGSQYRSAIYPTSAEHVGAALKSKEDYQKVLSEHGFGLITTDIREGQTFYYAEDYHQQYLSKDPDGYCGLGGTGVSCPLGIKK

Hexokinase = Hexokinase (Trypanosoma brucei, UniProt Q38C41); test: Confirmation assay for inhibitors of Trypanosoma brucei hexokinase 1-Analogue-first series. [Related pubchem assays (depositor defined):AID1430, AID1632, AID2516, AID2560, AID2579, AID2600, AID449725, AID492951]; assay type: functional
Sequence of Hexokinase (Q38C41 whole entry): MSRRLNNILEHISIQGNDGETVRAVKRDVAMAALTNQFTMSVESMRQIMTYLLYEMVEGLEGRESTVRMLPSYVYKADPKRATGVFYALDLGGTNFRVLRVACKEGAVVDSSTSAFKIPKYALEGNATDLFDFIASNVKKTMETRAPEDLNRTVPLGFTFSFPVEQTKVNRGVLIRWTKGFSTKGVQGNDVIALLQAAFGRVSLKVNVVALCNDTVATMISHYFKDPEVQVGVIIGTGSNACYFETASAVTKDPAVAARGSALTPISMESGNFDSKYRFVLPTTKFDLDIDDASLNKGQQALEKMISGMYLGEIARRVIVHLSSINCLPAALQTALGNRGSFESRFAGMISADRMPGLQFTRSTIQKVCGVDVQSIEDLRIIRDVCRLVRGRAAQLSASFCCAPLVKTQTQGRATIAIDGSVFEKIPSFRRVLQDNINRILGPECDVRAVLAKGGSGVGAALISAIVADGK

[6] = biological target: Alkaline phosphatase, placental type (Homo sapiens, UniProt P05187); test: PLAP enzyme inhibitors, confirmation, biochemical, luminescence (AID 1512); assay type: functional
Sequence of Alkaline phosphatase, placental type (P05187 whole entry): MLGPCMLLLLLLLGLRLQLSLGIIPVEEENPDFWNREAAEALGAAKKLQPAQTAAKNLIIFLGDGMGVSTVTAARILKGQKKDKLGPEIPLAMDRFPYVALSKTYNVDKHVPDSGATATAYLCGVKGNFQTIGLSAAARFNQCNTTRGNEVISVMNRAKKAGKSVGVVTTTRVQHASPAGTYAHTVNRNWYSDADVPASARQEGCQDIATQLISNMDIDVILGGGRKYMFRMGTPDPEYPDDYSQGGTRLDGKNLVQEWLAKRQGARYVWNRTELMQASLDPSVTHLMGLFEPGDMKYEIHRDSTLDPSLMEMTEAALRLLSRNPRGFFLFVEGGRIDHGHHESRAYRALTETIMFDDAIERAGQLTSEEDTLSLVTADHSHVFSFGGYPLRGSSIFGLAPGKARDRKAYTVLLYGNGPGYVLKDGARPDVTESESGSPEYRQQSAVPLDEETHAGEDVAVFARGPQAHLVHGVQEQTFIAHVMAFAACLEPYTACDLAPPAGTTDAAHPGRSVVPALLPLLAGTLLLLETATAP

[7] = biological target: T3, Alkaline phosphatase, tissue-nonspecific isozyme (Homo sapiens, UniProt P05186); test: human TNAP enzyme inhibitors, SAR follow-up, biochemical, luminescent, dose response (AID 1056)
T3 sequence (P05186 whole entry): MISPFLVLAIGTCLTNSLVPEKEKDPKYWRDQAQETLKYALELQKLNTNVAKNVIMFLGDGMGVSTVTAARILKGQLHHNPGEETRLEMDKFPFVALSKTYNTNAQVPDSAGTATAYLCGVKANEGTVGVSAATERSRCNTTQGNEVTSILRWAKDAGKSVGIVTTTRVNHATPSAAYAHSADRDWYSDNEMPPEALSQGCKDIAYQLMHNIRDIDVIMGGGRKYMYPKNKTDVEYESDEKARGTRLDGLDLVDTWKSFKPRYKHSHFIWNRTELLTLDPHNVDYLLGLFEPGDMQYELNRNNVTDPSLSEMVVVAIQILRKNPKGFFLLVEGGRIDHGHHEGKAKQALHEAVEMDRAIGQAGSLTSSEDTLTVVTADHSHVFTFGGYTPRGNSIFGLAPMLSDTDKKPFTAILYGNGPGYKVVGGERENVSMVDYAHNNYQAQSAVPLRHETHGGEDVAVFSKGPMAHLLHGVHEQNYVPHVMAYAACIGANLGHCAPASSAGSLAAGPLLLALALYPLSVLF

Sequence of Large T antigen (P03070 whole entry): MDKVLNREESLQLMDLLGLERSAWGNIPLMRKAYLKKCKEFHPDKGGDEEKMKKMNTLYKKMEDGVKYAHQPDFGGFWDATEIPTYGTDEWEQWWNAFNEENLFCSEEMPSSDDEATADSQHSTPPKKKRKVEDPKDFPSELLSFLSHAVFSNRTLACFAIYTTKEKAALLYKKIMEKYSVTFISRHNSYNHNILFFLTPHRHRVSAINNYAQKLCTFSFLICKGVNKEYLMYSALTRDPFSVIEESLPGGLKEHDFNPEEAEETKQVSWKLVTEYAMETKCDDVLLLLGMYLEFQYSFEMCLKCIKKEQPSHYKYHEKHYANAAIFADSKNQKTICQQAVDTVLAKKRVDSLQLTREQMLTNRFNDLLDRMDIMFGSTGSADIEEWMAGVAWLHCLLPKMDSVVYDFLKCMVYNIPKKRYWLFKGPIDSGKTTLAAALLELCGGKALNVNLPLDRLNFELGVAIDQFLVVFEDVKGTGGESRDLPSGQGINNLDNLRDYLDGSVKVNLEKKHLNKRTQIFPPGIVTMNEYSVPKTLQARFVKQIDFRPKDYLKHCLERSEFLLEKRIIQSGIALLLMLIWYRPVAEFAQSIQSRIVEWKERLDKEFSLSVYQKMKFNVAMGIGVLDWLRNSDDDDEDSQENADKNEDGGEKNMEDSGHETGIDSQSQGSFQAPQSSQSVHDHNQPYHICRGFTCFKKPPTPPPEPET
Sequence of Trypsin (P00761 whole entry): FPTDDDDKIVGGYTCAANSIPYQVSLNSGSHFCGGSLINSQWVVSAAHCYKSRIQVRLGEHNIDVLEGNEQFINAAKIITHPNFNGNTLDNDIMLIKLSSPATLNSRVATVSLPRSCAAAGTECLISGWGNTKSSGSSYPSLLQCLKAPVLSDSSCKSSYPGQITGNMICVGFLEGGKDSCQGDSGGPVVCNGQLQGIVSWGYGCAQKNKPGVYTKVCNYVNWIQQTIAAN

SMILES: O=C(O)c1ccc(-c2ccc(O)c(F)c2)cc1
- AC50 (Trypsin): 11.9 µM (active)
- IC50 (Large T antigen): 6.76 µM (active)
- AC50 (CAAX prenyl protease 2): > 100 µM (inactive)

SMILES: Nc1c(C(=O)NCc2ccco2)c2nc3ccccc3nc2n1CCc1ccccc1F
- IC50 [1]: 13.7 µM (active)
- CC50 [2]: 24.3 µM (active)
- IC50 [3]: 86.3 µM (inactive)

SMILES: N#Cc1ccc2sn(-c3ccccc3)c(=O)c2c1
- IC50 [4]: 14.1 µM (active)
- EC50 [5]: > 104 µM (inactive)
- IC50 (Hexokinase): 2.97 µM (active)

SMILES: O=C(NC1(C(F)(F)F)Oc2ccccc2O1)c1ccc(Cl)cc1
- IC50 [6]: > 100 µM (inactive)
- IC50 [7]: > 100 µM (inactive)

SMILES: COc1ccc2o/c(=N\O)c(C(=O)Nc3ccccc3OC)cc2c1
- IC50 [1]: 59 µM (inactive)
- IC50 [3]: 60.5 µM (inactive)

SMILES: COC(=O)c1ccc(Cl)cc1NC(=O)c1ccccc1OC
- IC50 (Hexokinase): > 25 µM (inactive)

SMILES: Cc1ccc(-c2nnc(SCC(=O)c3ccc(O)c(O)c3)n2-c2ccc(Cl)cc2)cc1
- IC50 [6]: 15.3 µM (active)
- IC50 [7]: > 100 µM (inactive)
